Where two headings read alike, the source gives them in different places.

For test [1], the target named is T1, human muscarinic M4 receptor (Homo sapiens, UniProt P08173).
T1 construct: expressed in transfected cells
T1 sequence (P08173 1-479): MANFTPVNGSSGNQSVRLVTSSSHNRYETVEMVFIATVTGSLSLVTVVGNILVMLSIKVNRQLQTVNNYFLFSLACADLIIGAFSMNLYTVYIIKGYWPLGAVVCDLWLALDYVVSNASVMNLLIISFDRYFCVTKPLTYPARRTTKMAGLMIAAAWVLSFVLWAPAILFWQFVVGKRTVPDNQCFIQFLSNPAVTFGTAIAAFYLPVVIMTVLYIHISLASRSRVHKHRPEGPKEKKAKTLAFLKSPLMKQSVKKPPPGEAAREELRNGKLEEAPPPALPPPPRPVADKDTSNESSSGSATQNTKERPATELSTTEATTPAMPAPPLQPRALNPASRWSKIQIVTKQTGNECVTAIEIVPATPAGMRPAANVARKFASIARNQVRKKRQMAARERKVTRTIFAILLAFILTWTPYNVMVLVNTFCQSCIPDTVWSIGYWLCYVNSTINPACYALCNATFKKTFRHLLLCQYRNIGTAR
As to the kind of experiment: Alphascreen Surefire phospho-ERK1/2 functional assay, M4. The format is cell-based. To be noted: for EC50 / % Emax cf. ACh, M4: CHO cells stably expressing human M4; for EC50: agonist 5 min, 37° C., read-out: pEC50 M4 (converted); for Emax: CHO. Here is the method:
(§1) ERK1/2 phosphorylation is a downstream consequence of both Gq/11 and Gi/o protein coupled receptor activation, making it highly suitable for the assessment of M1, M3 (Gq/11 coupled) and M2, M4 receptors (Gi/o coupled), rather than using different assay formats for different receptor subtypes. CHO cells stably expressing the human muscarinic M1, M2, M3 or M4 receptor were plated (25K/well) onto 96-well tissue culture plates in MEM-alpha+10% dialysed FBS. Once adhered, cells were serum-starved overnight. Agonist stimulation was performed by the addition of 5 μL agonist to the cells for 5 min (37° C.). Media was removed and 50 μL of lysis buffer added. After […], a 4 μL sample was transferred to 384-well plate and 7 μL of detection mixture added.
(§2) Isomer assignment (Isomer 1, Isomer 2, etc.) is based on the retention time of the compound using the separation technique that was performed in the final purification step. By implication, this could be reversed phase HPLC, chiral HPLC or chiral SFC retention time, and this will vary from compound to compound.
In general terms: In Alpha technology, singlet oxygen from a donor bead excites a nearby acceptor bead.

Test [2] concerns the target T2, human muscarinic M1 receptor (Homo sapiens, UniProt P11229).
T2 sequence (P11229 1-460): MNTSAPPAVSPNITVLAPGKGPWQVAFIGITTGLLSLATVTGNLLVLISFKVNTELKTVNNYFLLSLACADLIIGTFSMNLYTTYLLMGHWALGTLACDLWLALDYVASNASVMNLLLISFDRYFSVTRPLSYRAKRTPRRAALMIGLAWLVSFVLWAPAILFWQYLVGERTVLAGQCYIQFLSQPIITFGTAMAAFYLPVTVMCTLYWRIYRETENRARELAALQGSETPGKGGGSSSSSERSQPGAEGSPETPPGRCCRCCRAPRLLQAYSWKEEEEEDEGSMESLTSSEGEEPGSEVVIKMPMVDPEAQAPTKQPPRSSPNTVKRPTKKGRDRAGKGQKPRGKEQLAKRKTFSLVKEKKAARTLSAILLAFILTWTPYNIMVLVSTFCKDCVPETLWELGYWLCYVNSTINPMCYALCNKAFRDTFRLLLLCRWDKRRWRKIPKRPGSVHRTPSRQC
As to the kind of experiment: Alphascreen Surefire phospho-ERK1/2 functional assay, M1. It counts as cell-based. To be noted: for Emax: CHO; for EC50: agonist 5 min, 37° C. As to the method:
as §1, §2

The mark [3] stands for this setting: read-out: % Emax cf. ACh, M4, CHO cells stably expressing human M4, Emax relative to ACh.
Setting [4] is: CHO cells stably expressing human M1, read-out: pEC50 M1 (converted).
Where [5] appears, read: read-out: % Emax cf. ACh, M1, CHO cells stably expressing human M1, Emax relative to ACh.

For `CCOC(=O)N1C2CCCC1CC(N1CC(OC(=O)N(CC)CC)C1)C2` (single isomer, unassigned) [Example 7-1 Isomer 1, Ethyl 3-(3-((diethylcarbamoyl)oxy)azetidin-1-yl)-9-azabicyclo[3.3.1]nonane-9-carboxylate], the EC50 in test [1] was 2.29 µM; in test [2] (pEC50 M1, CHO cells stably expressing human M1), 1.29 µM. The Emax – broadly, the maximal effect, on the per cent scale that the assay sets – was 29% in test [1] (read-out: % Emax cf. ACh, M4) and 88% in test [2] (read-out: % Emax cf. ACh, M1).

As for `CCOC(=O)N1CCC2(CC(N3CC(OC(=O)N4CCCOCC4)C3)C2)C1` (single isomer, unassigned) [Example 4-3 Isomer 2, 1-(6-(Ethoxycarbonyl)-6-azaspiro[3.4]octan-2-yl)azetidin-3-yl 1,4-oxazepane-4-carboxylate], the results for the EC50 in test [1] and in test [2] (setting [4]) were 1.02 µM and 0.372 µM, respectively. In addition, the Emax in test [1] (setting [3]) amounted to 46%; in test [2] (setting [5]) it was 104%.

Take `CCOC(=O)N1CC2CCC1CC2N1CC(OC(=O)N2CCCC2)C1` (single isomer, unassigned) [Example 6-2 Isomer 1, Ethyl 5-(3-((pyrrolidine-1-carbonyl)oxy)azetidin-1-yl)-2-azabicyclo[2.2.2]octane-2-carboxylate]: the EC50 in test [1] is 0.646 µM; in test [2] (setting [4]) it was 6.92 µM. In addition, the Emax in test [1] (setting [3]) came to 55%; in test [2] (setting [5]), 83%.

For the compound `CCOC(=O)N1C2COCC1CC(N1CC(OC(=O)N3CCCCCC3)C1)C2` (single isomer, unassigned) [Example 8-1 Isomer 1, Ethyl 7-(3-((azepane-1-carbonyl)oxy)azetidin-1-yl)-3-oxa-9-azabicyclo[3.3.1]nonane-9-carboxylate], the EC50 in test [1] is 1.86 µM; in test [2] (setting [4]), 0.257 µM. Besides, the Emax in test [1] (read-out: % Emax cf. ACh, M4) was determined as 43%; in test [2] (read-out: % Emax cf. ACh, M1), 104%.

Consider `CCN(CC)C(=O)OC1CN(C2CCC3(C2)CN(C(=O)OC)C3)C1` (single isomer, unassigned) [Example 4-6 Isomer 1, Methyl 6-(3-((diethylcarbamoyl)oxy)azetidin-1-yl)-2-azaspiro[3.4]octane-2-carboxylate], for which the figures for the EC50 in test [1] and in test [2] (setting [4]) were 1.12 µM and 0.631 µM, respectively. The Emax came out at 33% in test [1] (setting [3]) and 92% in test [2] (setting [5]).

Take `CCOC(=O)N1CC2CCC1CC2N1CC(OC(=O)N(CC)CC)C1` (single isomer, unassigned) [Example 6-1 Isomer 1, Ethyl 5-(3-((diethylcarbamoyl)oxy)azetidin-1-yl)-2-azabicyclo[2.2.2]octane-2-carboxylate]: the figures for the EC50 in test [1] and in test [2] (setting [4]) were above 20 µM and 1.05 µM, respectively. Besides, the Emax in test [1] (setting [3]) stood at 9%; in test [2] (setting [5]), 65%.

Regarding `CCOC(=O)N1CC2(CC(N3CC(OC(=O)N(CC)CC)C3)C2)C1` [Example 4-1, Ethyl 6-(3-((diethylcarbamoyl)oxy)azetidin-1-yl)-2-azaspiro[3.3]heptane-2-carboxylate], the EC50 in test [1] was 1.7 µM; in test [2] (setting [4]) it was 0.832 µM. The Emax in test [1] (setting [3]) worked out at 57%; in test [2] (setting [5]), 83%.

Take `CCOC(=O)N1CC2CCC1CC2N1CC(OC(=O)N2CCCOCC2)C1` (single isomer, unassigned) [Example 6-5 Isomer 1, 1-(2-(Ethoxycarbonyl)-2-azabicyclo[2.2.2]octan-5-yl)azetidin-3-yl 1,4-oxazepane-4-carboxylate]: the EC50 in test [1] was above 20 µM; in test [2] (setting [4]) it was 0.813 µM. Besides, the Emax stood at 27% in test [1] (setting [3]) and 58% in test [2] (setting [5]).

With `CCOC(=O)N1CC2(CCC(N3CC(OC(=O)N(CC)CC)C3)C2)C1` (single isomer, unassigned) [Example 4-5 Isomer 2, Ethyl 6-(3-((diethylcarbamoyl)oxy)azetidin-1-yl)-2-azaspiro[3.4]octane-2-carboxylate], the “% Emax cf. ACh, M4” value in test [1] (Emax relative to ACh, listed as 4-5 Isomer 2) is 10%. The figures for the EC50 in test [1] and in test [2] (setting [4]) were above 20 µM and 1.12 µM, respectively. For the same compound, the “% Emax cf. ACh, M1” value in test [2] (CHO cells stably expressing human M1, Emax relative to ACh, listed as 4-5 Isomer 2) came to 44%.

On to `CCOC(=O)N1CC2CCC1CC2N1CC(OC(=O)N2CCCCC2)C1` (single isomer, unassigned) [Example 6-3 Isomer 1, Ethyl 5-(3-((piperidine-1-carbonyl)oxy)azetidin-1-yl)-2-azabicyclo[2.2.2]octane-2-carboxylate], for which the EC50 in test [1] was 1.62 µM; in test [2] (setting [4]), 0.355 µM. Further, the maximal effect (Emax) in test [1] (setting [3]) was 35%; in test [2] (setting [5]) it was 92%.

In the case of `CCOC(=O)N1CC2CCC1CC2N1CC(CC(=O)N2CCCOCC2)C1` (single isomer, unassigned) [Example 2-4 Isomer 1, Ethyl-5-(3-(2-(1,4-oxazepan-4-yl)-2-oxoethyl)azetidin-1-yl)-2-azabicyclo[2.2.2]octane-2-carboxylate], the EC50 is above 20 µM in test [1] and 1.02 µM in test [2] (setting [4]). Further, the maximal response (Emax) in test [1] (setting [3]) stood at 9%; in test [2] (setting [5]) it was 58%.

As for `CCOC(=O)N1C2CCC1CC(N1CC(OC(=O)N3CCCOCC3)C1)C2` (mixture of isomers) [Example 5-2 Isomer mixture, 1-(8-(Ethoxycarbonyl)-8-azabicyclo[3.2.1]octan-3-yl)azetidin-3-yl 1,4-oxazepane-4-carboxylate], the EC50 in test [1] was above 20 µM; in test [2] (setting [4]) it was 2.24 µM. For the same compound, the maximal response (Emax) in test [1] (read-out: % Emax cf. ACh, M4) was 19%; in test [2] (read-out: % Emax cf. ACh, M1) it was 92%.

As for `CCOC(=O)N1C2CCC1CC(N1CC(CC(=O)N3CCC34CCC4)C1)C2` (single isomer, unassigned) [Example 1-3 Isomer 2, Ethyl-3-(3-(2-oxo-2-(1-azaspiro[3.3]heptan-1-yl)ethyl)azetidin-1-yl)-8-azabicyclo[3.2.1]octane-8-carboxylate], the EC50 in test [1] is above 20 µM; in test [2] (setting [4]) it was 0.115 µM. Also, the Emax in test [1] (read-out: % Emax cf. ACh, M4) is 19%; in test [2] (read-out: % Emax cf. ACh, M1), 103%.

In the case of `CCOC(=O)N1CC2(CCC(N3CC(OC(=O)N4CCCOCC4)C3)C2)C1` (single isomer, unassigned) [Example 4-9 Isomer 2, 1-(2-(Ethoxycarbonyl)-2-azaspiro[3.4]octan-6-yl)azetidin-3-yl 1,4-oxazepane-4-carboxylate], the “% Emax cf. ACh, M4” value in test [1] (Emax relative to ACh, listed as 4-9 Isomer 2) was found to be 85%. Besides, the EC50 is 0.389 µM in test [1] and 5.62 µM in test [2] (setting [4]). Also, the “% Emax cf. ACh, M1” value in test [2] (CHO cells stably expressing human M1, Emax relative to ACh, listed as 4-9 Isomer 2) is on record as 84%.

In the case of `CCOC(=O)N1C2CCCC1CC(N1CC(CC(=O)N(CC)CC)C1)C2` (single isomer, unassigned) [Example 3-1 Isomer 1, Ethyl-3-(3-(2-(diethylamino)-2-oxoethyl)azetidin-1-yl)-9-azabicyclo[3.3.1]nonane-9-carboxylate], the EC50 was above 20 µM in test [1] and 0.813 µM in test [2] (setting [4]). Further, the Emax in test [1] (read-out: % Emax cf. ACh, M4) was found to be 23%; in test [2] (read-out: % Emax cf. ACh, M1), 106%.

In the case of `CCOC(=O)N1C2CCCC1CC(N1CC(CC(=O)N3CCCC3)C1)C2` (single isomer, unassigned) [Example 3-2 Isomer 1, Ethyl-3-(3-(2-oxo-2-(pyrrolidin-1-yl)ethyl)azetidin-1-yl)-9-azabicyclo[3.3.1]nonane-9-carboxylate], the EC50 in test [1] was 0.933 µM; in test [2] (setting [4]), 4.79 µM. The Emax in test [1] (read-out: % Emax cf. ACh, M4) amounted to 68%; in test [2] (read-out: % Emax cf. ACh, M1) it was 68%.

As for `CCOC(=O)N1C2CCC1CC(N1CC(CC(=O)N(CC)C(C)C)C1)C2` (mixture of isomers) [Example 1-2 Isomer mixture, Ethyl-3-(3-(2-(ethyl(isopropyl)amino)-2-oxoethyl)azetidin-1-yl)-8-azabicyclo[3.2.1]octane-8-carboxylate], the EC50 in test [1] is above 20 µM; in test [2] (setting [4]), 0.182 µM. Moreover, the Emax in test [1] (read-out: % Emax cf. ACh, M4) stood at 7%; in test [2] (read-out: % Emax cf. ACh, M1) it was 100%.

(Values after US11945801B2, “Bicyclic aza compounds as muscarinic M1 and/or M4 receptor agonists” (Heptares Therapeutics Limited, priority 2018, dated 2024).)
